Test results as given in the supplement of paper PMC10307832.

Experiments:
Assay in all cases: relative viability (nuclei count vs DMSO), 5 days (fraction); higher = more cells survive
Idelalisib + Phenformin = compound: CC[C@H](Nc1ncnc2[nH]cnc12)c1nc2cccc(F)c2c(=O)n1-c1ccccc1 [Idelalisib] + N=C(N)NC(=N)NCCc1ccccc1 [Phenformin] (partner 250 µM)
In short: (§1)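 Five library-drug doses in √10 steps were combined with a fixed anchor-drug dose, or a single drug was given alone, by pin tool to lung cancer cell lines in 1536-well plates the day after seeding. Nuclei were stained and counted after 5 days. Relative viability is the nuclei count in treated wells over that in vehicle wells, taken as the median of duplicate plates.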

Idelalisib + Pictilisib = compound: CC[C@H](Nc1ncnc2[nH]cnc12)c1nc2cccc(F)c2c(=O)n1-c1ccccc1 [Idelalisib] + CS(=O)(=O)N1CCN(Cc2cc3nc(-c4cccc5[nH]ncc45)nc(N4CCOCC4)c3s2)CC1 [Pictilisib] (partner 1 µM)
In short: as §1

Pemetrexed + Linsitinib = compound: Nc1nc2[nH]cc(CCc3ccc(C(=O)N[C@@H](CCC(=O)O)C(=O)O)cc3)c2c(=O)[nH]1 [Pemetrexed] + C[C@]1(O)C[C@@H](c2nc(-c3ccc4ccc(-c5ccccc5)nc4c3)c3c(N)nccn32)C1 [Linsitinib] (partner 1 µM)
In short: as §1

Idelalisib + Palbociclib = compound: CC[C@H](Nc1ncnc2[nH]cnc12)c1nc2cccc(F)c2c(=O)n1-c1ccccc1 [Idelalisib] + CC(=O)c1c(C)c2cnc(Nc3ccc(N4CCNCC4)cn3)nc2n(C2CCCC2)c1=O [Palbociclib] (partner 0.5 µM)
In short: as §1

| Cell Line | relative viability (Idelalisib + Phenformin; first compound 0.04 µM) | relative viability (Idelalisib + Phenformin; first compound 0.1265 µM) | relative viability (Idelalisib + Phenformin; first compound 0.4 µM) | relative viability (Idelalisib + Phenformin; first compound 1.265 µM) | relative viability (Idelalisib + Phenformin; first compound 4 µM) | relative viability (Idelalisib + Pictilisib; first compound 0.04 µM) | relative viability (Idelalisib + Pictilisib; first compound 0.1265 µM) | relative viability (Idelalisib + Pictilisib; first compound 0.4 µM) | relative viability (Idelalisib + Pictilisib; first compound 1.265 µM) | relative viability (Idelalisib + Pictilisib; first compound 4 µM) | relative viability (Pemetrexed + Linsitinib; first compound 0.002 µM) | relative viability (Pemetrexed + Linsitinib; first compound 0.006325 µM) | relative viability (Pemetrexed + Linsitinib; first compound 0.02 µM) | relative viability (Pemetrexed + Linsitinib; first compound 0.06325 µM) | relative viability (Pemetrexed + Linsitinib; first compound 0.2 µM) | relative viability (Idelalisib + Palbociclib; first compound 0.04 µM) | relative viability (Idelalisib + Palbociclib; first compound 0.1265 µM) | relative viability (Idelalisib + Palbociclib; first compound 0.4 µM) | relative viability (Idelalisib + Palbociclib; first compound 1.265 µM) | relative viability (Idelalisib + Palbociclib; first compound 4 µM) |
| --- | --- | --- | --- | --- | --- | --- | --- | --- | --- | --- | --- | --- | --- | --- | --- | --- | --- | --- | --- | --- |
| NCI-H1944 | 0.237 | 0.204 | 0.158 | 0.187 | 0.175 | 0.374 | 0.357 | 0.308 | 0.376 | 0.33 | 1.09 | 1.02 | 1.17 | 1.19 | 1.21 | 0.36 | 0.315 | 0.297 | 0.292 | 0.283 |
| A-427 | 0.36 | 0.318 | 0.287 | 0.372 | 0.328 | 0.871 | 0.789 | 0.826 | 0.743 | 0.724 | 1.02 | 1.09 | 1.08 | 1.13 | 1.1 | 0.558 | 0.542 | 0.491 | 0.559 | 0.505 |
| NCI-H520 | 0.513 | 0.585 | 0.466 | 0.451 | 0.397 | 0.394 | 0.308 | 0.283 | 0.294 | 0.309 | 0.946 | 0.911 | 0.926 | 1.09 | 0.956 | 0.24 | 0.184 | 0.193 | 0.185 | 0.156 |
| NCI-H650 | 0.519 | 0.429 | 0.446 | 0.487 | 0.457 | 0.849 | 0.858 | 0.907 | 0.819 | 0.783 | 0.651 | 0.983 | 1.1 | 0.944 | 0.839 | 0.327 | 0.314 | 0.309 | 0.312 | 0.296 |
| COR-L 105 | 0.592 | 0.473 | 0.433 | 0.564 | 0.421 | 0.555 | 0.418 | 0.399 | 0.463 | 0.31 | 0.804 | 0.872 | 1.05 | 0.709 | 1.03 | 0.431 | 0.42 | 0.353 | 0.424 | 0.433 |
| NCI-H1755 | 0.633 | 0.601 | 0.558 | 0.675 | 0.531 | 0.444 | 0.466 | 0.358 | 0.41 | 0.372 | 0.883 | 0.966 | 1.02 | 0.988 | 0.951 | 0.462 | 0.422 | 0.444 | 0.437 | 0.465 |
| NCI-H2085 | 0.788 | 0.833 | 0.558 | 0.735 | 0.471 | 0.531 | 0.452 | 0.38 | 0.451 | 0.413 | 0.872 | 0.828 | 0.881 | 0.942 | 0.97 | 0.466 | 0.445 | 0.483 | 0.422 | 0.464 |
| NCI-H2023 | 0.407 | 0.391 | 0.363 | 0.361 | 0.351 | 0.221 | 0.279 | 0.153 | 0.241 | 0.266 | 0.738 | 0.537 | 0.693 | 0.55 | 0.304 | 0.368 | 0.492 | 0.295 | 0.295 | 0.295 |
| HOP-62 | 0.558 | 0.656 | 0.589 | 0.672 | 0.654 | 0.883 | 0.712 |  | 0.649 | 0.792 | 0.903 | 0.788 | 0.959 | 0.671 | 0.922 | 0.441 | 0.468 | 0.411 | 0.468 | 0.328 |
